Experimental data as given in US9302999B2, “Substituted triazoles as herbicides” (E. I. DU PONT DE NEMOURS AND COMPANY, priority 2012, dated 2016).

Key:
Format in all cases: in vivo
[1] = tested on: barnyardgrass (Echinochloa crus-galli); assay: Test A pre-/postemergence: barnyardgrass
Text: (§1) Seeds of barnyardgrass (Echinochloa crus-galli), crabgrass, large (large crabgrass, Digitaria sanguinalis), foxtail, giant (giant foxtail, Setaria faberii), morningglory (Ipomoea spp.), pigweed (Amaranthus retroflexus), velvetleaf (Abutilon theophrasti), wheat (Triticum aestivum), and corn (Zea mays) were planted into a blend of loam soil and sand and treated preemergence with a directed soil spray using test chemicals formulated in a non-phytotoxic solvent mixture which included a surfactant. At the same time these species were also treated with postemergence applications of test chemicals formulated in the same manner.
(§2) Plants ranged in height from two to ten cm and were in the one- to two-leaf stage for the postemergence treatment. Treated plants and untreated controls were maintained in a greenhouse for approximately ten days, after which time all treated plants were compared to untreated controls and visually evaluated for injury. Plant response ratings, summarized in Table A, are based on a 0 to 100 scale where 0 is no effect and 100 is complete control. A dash (-) response means no test result.

[2] = tested on: crabgrass, large (large crabgrass, Digitaria sanguinalis); assay: Test A pre-/postemergence: crabgrass, large
Method in brief: (§3)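 Compounds, formulated with surfactant in non-phytotoxic solvent, were applied as a directed soil spray preemergence and as postemergence sprays to 2–10 cm, one- to two-leaf seedlings grown in loam soil blended with sand; visual injury, 0–100, assessed ~10 days post-treatment against untreated controls.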

[3] = tested on: foxtail, giant (giant foxtail, Setaria faberii); assay: Test A pre-/postemergence: foxtail, giant; conditions: for Foxtail, Giant plant response rating: Postemergence; for Plant response rating, Foxtail, Giant: Preemergence
Method in brief: as §3

[4] = tested on: morningglory (Ipomoea spp.); assay: Test A pre-/postemergence: morningglory
Text: as §1, §2

[5] = tested on: pigweed (Amaranthus retroflexus); assay: Test A pre-/postemergence: pigweed
Method in brief: as §3

[6] = tested on: velvetleaf (Abutilon theophrasti); assay: Test A pre-/postemergence: velvetleaf
Method in brief: as §3

[7] = tested on: wheat (Triticum aestivum); assay: Test A pre-/postemergence: wheat
Text: as §1, §2

[8] = tested on: corn (Zea mays); assay: Test A pre-/postemergence: corn
Method in brief: as §3

[9] = tested on: rice (Oryza sativa); assay: Test C flooded paddy test: rice; conditions: scale 0 to 100 (0 no effect, 100 complete control)
Text: (§4) Plant species in the flooded paddy test consisted of rice (Oryza sativa), sedge, umbrella (small-flower umbrella sedge, Cyperus difformis), ducksalad (Heteranthera limosa) and barnyardgrass (Echinochloa crus-galli) grown to the 2-leaf stage for testing. At time of treatment, test pots were flooded to 3 cm above the soil surface, treated by application of test compounds directly to the paddy water, and then maintained at that water depth for the duration of the test.
(§5) Treated plants and controls were maintained in a greenhouse for 13 to 15 days, after which time all species were compared to controls and visually evaluated. Plant response ratings, summarized in Table C, are based on a scale of 0 to 100 where 0 is no effect and 100 is complete control. A dash (-) response means no test result.

[10] = tested on: sedge, umbrella (small-flower umbrella sedge, Cyperus difformis); assay: Test C flooded paddy test: sedge, umbrella; conditions: scale 0 to 100 (0 no effect, 100 complete control)
Text: as §4, §5

[11] = tested on: ducksalad (Heteranthera limosa); assay: Test C flooded paddy test: ducksalad; conditions: scale 0 to 100 (0 no effect, 100 complete control)
Text: as §4, §5

[12] = tested on: barnyardgrass (Echinochloa crus-galli); assay: Test C flooded paddy test: barnyardgrass; conditions: scale 0 to 100 (0 no effect, 100 complete control)
Text: as §4, §5

[13] = Postemergence, 125 g ai/ha, 0 to 100 scale, 0 is no effect, 100 is complete control
[14] = Postemergence, 500 g ai/ha, visual rating on 0 to 100 scale (0 no effect, 100 complete control), approximately ten days
[15] = Preemergence, 125 g ai/ha, 0 to 100 scale (0 no effect, 100 complete control)
[16] = Preemergence, 500 g ai/ha, 0 to 100 scale, 0 is no effect, 100 is complete control
[17] = 125 g ai/ha, 0 to 100 scale, 0 is no effect, 100 is complete control
[18] = 500 g ai/ha, visual rating on 0 to 100 scale (0 no effect, 100 complete control), approximately ten days
[19] = 125 g ai/ha, 0 to 100 scale (0 no effect, 100 complete control)
[20] = 500 g ai/ha, 0 to 100 scale, 0 is no effect, 100 is complete control
[21] = Flood (flooded paddy test), 62 g ai/ha, visual rating after 13 to 15 days
[22] = Flood (flooded paddy test), 125 g ai/ha, visual rating after 13 to 15 days
[23] = Flood (flooded paddy test), 250 g ai/ha, visual rating after 13 to 15 days
[24] = Postemergence, 1000 g ai/ha, visual rating on 0 to 100 scale (0 no effect, 100 complete control), approximately ten days
[25] = Preemergence, 1000 g ai/ha, 0 to 100 scale, 0 is no effect, 100 is complete control

Cc1nn(-c2ccc(C(F)(F)F)cn2)nc1Cn1cnc(C(F)(F)F)n1 [Compound 8]
Barnyardgrass plant response rating [1, 13]: 10
Barnyardgrass plant response rating [1, 14]: 80
Plant response rating, Barnyardgrass [1, 15]: 20
Plant response rating, Barnyardgrass [1, 16]: 80
Crabgrass, Large plant response rating [2, 13]: 40
Crabgrass, Large plant response rating [2, 14]: 80
Plant response rating, Crabgrass, Large [2, 15]: 90
Plant response rating, Crabgrass, Large [2, 16]: 100
Foxtail, Giant plant response rating [3, 17]: 30
Foxtail, Giant plant response rating [3, 18]: 80
Plant response rating, Foxtail, Giant [3, 19]: 60
Plant response rating, Foxtail, Giant [3, 20]: 90
Morningglory plant response rating [4, 13]: 90
Morningglory plant response rating [4, 14]: 90
Plant response rating, Morningglory [4, 15]: 30
Plant response rating, Morningglory [4, 16]: 90
Pigweed plant response rating [5, 13]: 60
Pigweed plant response rating [5, 14]: 100
Plant response rating, Pigweed [5, 15]: 90
Plant response rating, Pigweed [5, 16]: 100
Velvetleaf plant response rating [6, 13]: 30
Velvetleaf plant response rating [6, 14]: 80
Plant response rating, Velvetleaf [6, 15]: 20
Plant response rating, Velvetleaf [6, 16]: 60
Wheat plant response rating [7, 13]: 0
Wheat plant response rating [7, 14]: 20
Plant response rating, Wheat [7, 15]: 0
Plant response rating, Wheat [7, 16]: 10
Corn plant response rating [8, 13]: 20
Corn plant response rating [8, 14]: 40
Plant response rating, Corn [8, 15]: 0
Plant response rating, Corn [8, 16]: 0
Plant response rating, Rice [9, 21]: 0
Plant response rating, Rice [9, 22]: 0
Plant response rating, Rice [9, 23]: 0
Plant response rating, Rice ([9]; Flood, 31 g ai/ha): 0
Plant response rating, Sedge, Umbrella [10, 21]: 0
Plant response rating, Sedge, Umbrella [10, 22]: 0
Plant response rating, Sedge, Umbrella [10, 23]: 75
Plant response rating, Sedge, Umbrella ([10]; Flood, 31 g ai/ha): 0
Plant response rating, Ducksalad [11, 21]: 0
Plant response rating, Ducksalad [11, 22]: 0
Plant response rating, Ducksalad [11, 23]: 45
Plant response rating, Ducksalad ([11]; Flood, 31 g ai/ha): 0
Plant response rating, Barnyardgrass [12, 21]: 0
Plant response rating, Barnyardgrass [12, 22]: 0
Plant response rating, Barnyardgrass [12, 23]: 0
Plant response rating, Barnyardgrass ([12]; Flood, 31 g ai/ha): 0

Cc1nn(-c2ccc(C(F)(F)F)cc2)nc1Cn1cc(C(F)(F)F)nc1Cl [Compound 9]
Barnyardgrass plant response rating [1, 13]: 50
Barnyardgrass plant response rating [1, 14]: 60
Plant response rating, Barnyardgrass [1, 15]: 30
Plant response rating, Barnyardgrass [1, 16]: 70
Crabgrass, Large plant response rating [2, 13]: 60
Crabgrass, Large plant response rating [2, 14]: 70
Plant response rating, Crabgrass, Large [2, 15]: 90
Plant response rating, Crabgrass, Large [2, 16]: 100
Foxtail, Giant plant response rating [3, 17]: 50
Foxtail, Giant plant response rating [3, 18]: 70
Plant response rating, Foxtail, Giant [3, 19]: 80
Plant response rating, Foxtail, Giant [3, 20]: 90
Morningglory plant response rating [4, 13]: 70
Morningglory plant response rating [4, 14]: 100
Plant response rating, Morningglory [4, 15]: 50
Plant response rating, Morningglory [4, 16]: 60
Pigweed plant response rating [5, 13]: 90
Pigweed plant response rating [5, 14]: 100
Plant response rating, Pigweed [5, 15]: 90
Plant response rating, Pigweed [5, 16]: 100
Velvetleaf plant response rating [6, 13]: 60
Velvetleaf plant response rating [6, 14]: 80
Plant response rating, Velvetleaf [6, 15]: 30
Plant response rating, Velvetleaf [6, 16]: 50
Wheat plant response rating [7, 13]: 0
Wheat plant response rating [7, 14]: 20
Plant response rating, Wheat [7, 15]: 0
Plant response rating, Wheat [7, 16]: 0
Corn plant response rating [8, 13]: 20
Corn plant response rating [8, 14]: 30
Plant response rating, Corn [8, 15]: 0
Plant response rating, Corn [8, 16]: 10
Plant response rating, Rice [9, 21]: 0
Plant response rating, Rice [9, 23]: 0
Plant response rating, Sedge, Umbrella [10, 21]: 40
Plant response rating, Sedge, Umbrella [10, 23]: 85
Plant response rating, Ducksalad [11, 21]: 0
Plant response rating, Ducksalad [11, 23]: 0
Plant response rating, Barnyardgrass [12, 21]: 0
Plant response rating, Barnyardgrass [12, 23]: 30

CCc1nn(-c2ccc(F)cc2)nc1Cn1ccc(C(F)(F)C(F)(F)F)n1 [Compound 10]
Barnyardgrass plant response rating [1, 13]: 20
Barnyardgrass plant response rating [1, 14]: 50
Plant response rating, Barnyardgrass [1, 15]: 0
Plant response rating, Barnyardgrass [1, 16]: 10
Crabgrass, Large plant response rating [2, 13]: 40
Crabgrass, Large plant response rating [2, 14]: 60
Plant response rating, Crabgrass, Large [2, 15]: 40
Plant response rating, Crabgrass, Large [2, 16]: 90
Foxtail, Giant plant response rating [3, 17]: 20
Foxtail, Giant plant response rating [3, 18]: 50
Plant response rating, Foxtail, Giant [3, 19]: 20
Plant response rating, Foxtail, Giant [3, 20]: 80
Morningglory plant response rating [4, 13]: 100
Morningglory plant response rating [4, 14]: 100
Plant response rating, Morningglory [4, 15]: 0
Plant response rating, Morningglory [4, 16]: 10
Pigweed plant response rating [5, 13]: 70
Pigweed plant response rating [5, 14]: 100
Plant response rating, Pigweed [5, 15]: 60
Plant response rating, Pigweed [5, 16]: 80
Velvetleaf plant response rating [6, 13]: 40
Velvetleaf plant response rating [6, 14]: 50
Plant response rating, Velvetleaf [6, 15]: 0
Plant response rating, Velvetleaf [6, 16]: 20
Wheat plant response rating [7, 13]: 0
Wheat plant response rating [7, 14]: 10
Plant response rating, Wheat [7, 15]: 0
Plant response rating, Wheat [7, 16]: 0
Corn plant response rating [8, 13]: 20
Corn plant response rating [8, 14]: 20
Plant response rating, Corn [8, 15]: 0
Plant response rating, Corn [8, 16]: 0
Plant response rating, Rice [9, 21]: 0
Plant response rating, Rice [9, 23]: 0
Plant response rating, Sedge, Umbrella [10, 21]: 0
Plant response rating, Sedge, Umbrella [10, 23]: 0
Plant response rating, Ducksalad [11, 21]: 0
Plant response rating, Ducksalad [11, 23]: 0
Plant response rating, Barnyardgrass [12, 21]: 0
Plant response rating, Barnyardgrass [12, 23]: 0

FC(F)(F)c1ccc(-n2nc(Br)c(Cc3cccc(C(F)(F)F)c3)n2)nc1 [Compound 105]
Barnyardgrass plant response rating [1, 24]: 10
Barnyardgrass plant response rating [1, 25]: 10
Crabgrass, Large plant response rating [2, 24]: 50
Crabgrass, Large plant response rating [2, 25]: 50
Morningglory plant response rating [4, 24]: 90
Morningglory plant response rating [4, 25]: 10
Pigweed plant response rating [5, 24]: 100
Pigweed plant response rating [5, 25]: 90
Velvetleaf plant response rating [6, 24]: 40
Velvetleaf plant response rating [6, 25]: 10
Wheat plant response rating [7, 24]: 0
Wheat plant response rating [7, 25]: 0
Corn plant response rating [8, 24]: 10
Corn plant response rating [8, 25]: 0
Plant response rating, Rice [9, 22]: 0
Plant response rating, Rice [9, 23]: 0
Plant response rating, Rice ([9]; Flood, 31 g ai/ha): 0
Plant response rating, Rice ([9]; Flood, 62 g ai/ha): 0
Plant response rating, Sedge, Umbrella [10, 22]: 0
Plant response rating, Sedge, Umbrella [10, 23]: 0
Plant response rating, Sedge, Umbrella ([10]; Flood, 31 g ai/ha): 0
Plant response rating, Sedge, Umbrella ([10]; Flood, 62 g ai/ha): 0
Plant response rating, Ducksalad [11, 22]: 0
Plant response rating, Ducksalad [11, 23]: 0
Plant response rating, Ducksalad ([11]; Flood, 31 g ai/ha): 0
Plant response rating, Ducksalad ([11]; Flood, 62 g ai/ha): 0
Plant response rating, Barnyardgrass [12, 22]: 0
Plant response rating, Barnyardgrass [12, 23]: 0
Plant response rating, Barnyardgrass ([12]; Flood, 31 g ai/ha): 0
Plant response rating, Barnyardgrass ([12]; Flood, 62 g ai/ha): 0
